Earlier results in patent US20130122091A1, “POLYDEOXYRIBONUCLEOTIDE-BASED COMPOSITIONS AND THEIR METHODS OF USE” (MEDESTEA INTERNAZIONALE SPA, priority 2010, published 2013).

What was measured:
[1] = PDRN-treated survivors, versus 2% of non-PDRN-treated survivors
[2] = system: fibroblasts

polydeoxyribonucleotides [PDRNs]
Resolution of the serious hepatic veno-occlusive disease [1]: 42%
increase in the number of fibroblasts [2]: 35%
increase in the production of all the dermal matrix components [2]: 30%
